Columns and labels:
[1] = system: Anopheles funestus strain FUMOZ-R; settings: application rate 40 mg/m^2, exposure 30 minutes, 24 hours after contact
Description: Anopheles Test (ANPHFU Surface Treatment)
(§2) • Solvent: acetone+2000 ppm rapeseed oil methyl ester (RME)
The exposure time is 30 minutes.
(§3) 24 hours after contact with the treated surface, mortality in % is determined. 100% means that all the mosquitoes have been killed; 0% means that none of the mosquitoes have been killed.

[2] = system: Anopheles gambiae strain RSPH (homozygot kdr); settings: application rate 40 mg/m^2, exposure 30 minutes, 24 hours after contact
Description: Anopheles Test (ANPHGB Surface Treatment)
as §2
The exposure time is 30 minutes.
as §3

[3] = system: Boophilus microplus Parkhurst strain, SP-resistant; experiment: Boophilus microplus dip test; type: in vivo; settings: application rate 100 ppm, assessed after 7 days
How it was run: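 Engorged adult female SP-resistant Parkhurst-strain ticks, 8-10 per tube, were fully immersed in compound, with the DMSO solution diluted in water to the desired concentration. Efficacy was scored at 7 days by fertile egg laying, and unclear eggs were held until hatching at about 42 days. 100% means no fertile eggs and 0% means all eggs fertile.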

[4] = system: Ctenocephalides felis; experiment: Ctenocephalides felis oral test; type: in vivo; settings: application rate 100 ppm in citrated cattle blood, after 2 days
How it was run: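 Compound in DMSO, diluted to test concentration in citrated cattle blood, was fed through a parafilm membrane from a metal cylinder. About 20 unfed adult cat fleas were held in a gauze-closed chamber beneath it.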

[5] = system: Lucilia cuprina; experiment: Lucilia cuprina test; type: in vivo; settings: application rate 100 ppm, L1 larvae, after 2 days
How it was run: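 About 20 L1 larvae of Lucilia cuprina are placed on minced horsemeat treated with compound (DMSO concentrate diluted in water to the test concentration). Kill is scored after 2 days, where 100% means all larvae dead and 0% none dead.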

[6] = system: Spodoptera frugiperda; experiment: Spodoptera frugiperda spray test; type: in vivo; settings: application rate 100 g/ha, after 7 days
Description: Spodoptera Frugiperda—Spray Test
(§1) • Solvent: 78.0 parts by weight of acetone • 1.5 parts by weight of dimethylformamide • Emulsifier: alkylaryl polyglycol ether
To produce a suitable preparation of active compound, 1 part by weight of active compound is dissolved using the stated parts by weight of solvent and made up with water containing an emulsifier concentration of 1000 ppm until the desired concentration is attained. To produce further test concentrations, the preparation is diluted with emulsifier-containing water.
Leaf discs of maize (Zea mays) are sprayed with an active compound preparation of the desired concentration and, after drying, populated with caterpillars of the armyworm (Spodopterafrugiperda).
After 7 days, the efficacy in % is determined. 100% means that all the caterpillars have been killed; 0% means that no caterpillars have been killed.

[7] = system: Myzus persicae; experiment: Myzus persicae spray test; type: in vivo; settings: application rate 100 g/ha, after 6 days
Description: Myzus Persicae—Spray Test […] To produce further test concentrations, the preparation is diluted with emulsifier-containing water. Discs of Chinese cabbage leaves (Brassica pekinensis) infested by all stages of the green peach aphid (Myzus persicae) are sprayed with an active compound preparation of the desired concentration.

[8] = system: Phaedon cochleariae; experiment: Phaedon cochleariae spray test; type: in vivo; settings: application rate 100 g/ha, after 7 days
How it was run: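 Compound dissolved in acetone/dimethylformamide and diluted with water containing 1000 ppm alkylaryl polyglycol ether emulsifier to the test concentrations. Efficacy scored after 7 days as % beetle larvae killed (100% all dead, 0% none).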

[9] = logP by HPLC on reversed-phase column (C18), EEC Directive 79/831 Annex V.A8; type: physicochemical; settings: HPLC, C18, acetonitrile (0.1% formic acid)/water (0.09% formic acid) gradient
[10] = system: Tetranychus urticae; experiment: Tetranychus urticae spray test, OP-resistant; type: in vivo; settings: application rate 100 g/ha, after 6 days
Description: Tetranychus Urticae—Spray Test, OP-Resistant
as §1
To produce further test concentrations, the preparation is diluted with emulsifier-containing water.
After 6 days, the efficacy in % is determined. 100% means that all the spider mites have been killed; 0% means that none of the spider mites have been killed.

[11] = system: Boophilus microplus; experiment: Boophilus microplus injection test; type: in vivo; settings: application rate 20 μg/animal, assessed after 7 days
Description: Boophilus microplus—Injection Test • Solvent: dimethyl sulphoxide […] The animals are transferred into dishes and kept in a climate-controlled room. Efficacy is assessed after 7 days by laying of fertile eggs. Eggs which are not visibly fertile are stored in a climate-controlled cabinet until the larvae hatch after about 42 days.

[12] = system: Musca domestica; experiment: Musca domestica test; type: in vivo; settings: application rate 100 ppm, adult houseflies, after 2 days
How it was run: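 Adult houseflies (10 per vessel) exposed to a sugar-solution-treated sponge carrying compound diluted in water from a DMSO concentrate at the desired concentration. Kill in % scored after 2 days; 100% = all flies dead, 0% = none.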

## O=C(NC1CC1)c1cc(-c2cn(-c3c(Cl)cc(C(F)(C(F)(F)F)C(F)(F)F)cc3C(F)(F)F)nn2)cnc1Cl [Example 16]
[1]
  efficacy (mortality in %): 90-100%
[2]
  efficacy (mortality in %): 90-100%
[3]
  efficacy (laying of fertile eggs): 100%
[4]
  efficacy (kill in %): 100%
[5]
  efficacy (kill in %): 100%
[6]
  efficacy in %: 100%
[7]
  efficacy in %: 90%
[8]
  efficacy in %: 100%
[9]
  logP: 4.0
[10]
  efficacy in %: 100%
[11]
  efficacy (laying of fertile eggs): 100%
[12]
  efficacy (kill in %): 100%

Reference: patent US10208015B2, “Aryl-triazolyl pyridines as pest control agents” (BAYER ANIMAL HEALTH GMBH, priority 2014, dated 2019)
